pEC50: −log10 of the molar value. The source made the active and inactive calls. No cut-off for these calls is given here.
Key:
[1] = biological target: Toll-like receptor 3 (Homo sapiens) (UniProt O15455); assay: Agonist activity at human recombinant TLR3 expressed in HEK293 cells at 10 uM by SEAP reporter assay; format: cell-based
PBMC [2] = assay: Cytotoxicity against PHA-stimulated human PBMC at 20 uM by WST-1 cell proliferation assay; format: cell-based
HEK293 = assay: Agonist activity at chimeric extracellular domain of human TLR4 fused with mouse intracellular domain expressed in HEK293 cells by NFkappaB reporter assay; format: cell-based
Toll-like receptor 4 [3] = biological target: T1, Toll-like receptor 4 (Homo sapiens, UniProt O00206); assay: Intrinsic activity at human recombinant TLR4 expressed in HEK293 cells by SEAP reporter assay relative to LPS; format: cell-based
[4] = biological target: T2, Toll-like receptor 7 (Homo sapiens) (UniProt Q9NYK1); assay: Agonist activity at human recombinant TLR7 expressed in HEK293 cells at 10 uM by SEAP reporter assay; format: cell-based
T2 sequence (whole entry): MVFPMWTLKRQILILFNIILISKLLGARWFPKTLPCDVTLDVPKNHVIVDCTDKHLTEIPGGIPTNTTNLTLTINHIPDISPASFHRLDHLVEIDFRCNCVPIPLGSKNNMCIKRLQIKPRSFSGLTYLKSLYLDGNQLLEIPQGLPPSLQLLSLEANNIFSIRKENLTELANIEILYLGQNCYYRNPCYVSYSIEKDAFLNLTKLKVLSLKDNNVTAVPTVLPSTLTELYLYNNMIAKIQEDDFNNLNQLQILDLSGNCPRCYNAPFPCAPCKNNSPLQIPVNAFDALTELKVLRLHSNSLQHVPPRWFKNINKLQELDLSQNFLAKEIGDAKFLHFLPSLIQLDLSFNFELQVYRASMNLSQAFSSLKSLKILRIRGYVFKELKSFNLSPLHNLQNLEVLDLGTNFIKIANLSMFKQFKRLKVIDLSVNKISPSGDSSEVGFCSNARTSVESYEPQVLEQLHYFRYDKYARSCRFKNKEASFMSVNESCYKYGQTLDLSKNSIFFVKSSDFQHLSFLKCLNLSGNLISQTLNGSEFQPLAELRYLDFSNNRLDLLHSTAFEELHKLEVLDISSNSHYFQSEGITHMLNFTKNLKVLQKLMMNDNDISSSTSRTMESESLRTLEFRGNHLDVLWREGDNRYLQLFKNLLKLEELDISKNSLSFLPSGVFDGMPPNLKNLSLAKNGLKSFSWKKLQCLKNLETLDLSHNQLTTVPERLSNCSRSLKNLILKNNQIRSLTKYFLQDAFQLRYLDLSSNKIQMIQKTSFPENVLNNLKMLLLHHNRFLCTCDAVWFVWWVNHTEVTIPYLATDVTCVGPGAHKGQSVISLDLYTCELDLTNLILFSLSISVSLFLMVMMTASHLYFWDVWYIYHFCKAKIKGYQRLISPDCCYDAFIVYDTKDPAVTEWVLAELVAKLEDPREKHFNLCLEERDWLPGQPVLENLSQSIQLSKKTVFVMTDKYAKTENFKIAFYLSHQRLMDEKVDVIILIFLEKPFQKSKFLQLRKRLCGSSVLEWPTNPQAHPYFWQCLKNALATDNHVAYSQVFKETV

PBMC [5] = assay: Induction of IL-8 production in human PBMC at 10 uM by ELISA; format: functional, cell-based
Toll-like receptor 4 [6] = biological target: T1, Toll-like receptor 4; assay: Agonist activity at human recombinant TLR4 expressed in HEK293 cells by SEAP reporter assay; format: cell-based
Toll-like receptor 4 [7] = biological target: T1, Toll-like receptor 4; assay: Agonist activity at human recombinant TLR4 expressed in HEK293 cells coexpressed with mouse MD2 assessed as TNFalpha response by NFkappaB reporter assay; format: cell-based
[8] = biological target: T3, Toll-like receptor 8 (Homo sapiens) (UniProt Q9NR97); assay: Agonist activity at human recombinant TLR8 expressed in HEK293 cells at 10 uM by SEAP reporter assay; format: cell-based
T3 sequence (whole entry): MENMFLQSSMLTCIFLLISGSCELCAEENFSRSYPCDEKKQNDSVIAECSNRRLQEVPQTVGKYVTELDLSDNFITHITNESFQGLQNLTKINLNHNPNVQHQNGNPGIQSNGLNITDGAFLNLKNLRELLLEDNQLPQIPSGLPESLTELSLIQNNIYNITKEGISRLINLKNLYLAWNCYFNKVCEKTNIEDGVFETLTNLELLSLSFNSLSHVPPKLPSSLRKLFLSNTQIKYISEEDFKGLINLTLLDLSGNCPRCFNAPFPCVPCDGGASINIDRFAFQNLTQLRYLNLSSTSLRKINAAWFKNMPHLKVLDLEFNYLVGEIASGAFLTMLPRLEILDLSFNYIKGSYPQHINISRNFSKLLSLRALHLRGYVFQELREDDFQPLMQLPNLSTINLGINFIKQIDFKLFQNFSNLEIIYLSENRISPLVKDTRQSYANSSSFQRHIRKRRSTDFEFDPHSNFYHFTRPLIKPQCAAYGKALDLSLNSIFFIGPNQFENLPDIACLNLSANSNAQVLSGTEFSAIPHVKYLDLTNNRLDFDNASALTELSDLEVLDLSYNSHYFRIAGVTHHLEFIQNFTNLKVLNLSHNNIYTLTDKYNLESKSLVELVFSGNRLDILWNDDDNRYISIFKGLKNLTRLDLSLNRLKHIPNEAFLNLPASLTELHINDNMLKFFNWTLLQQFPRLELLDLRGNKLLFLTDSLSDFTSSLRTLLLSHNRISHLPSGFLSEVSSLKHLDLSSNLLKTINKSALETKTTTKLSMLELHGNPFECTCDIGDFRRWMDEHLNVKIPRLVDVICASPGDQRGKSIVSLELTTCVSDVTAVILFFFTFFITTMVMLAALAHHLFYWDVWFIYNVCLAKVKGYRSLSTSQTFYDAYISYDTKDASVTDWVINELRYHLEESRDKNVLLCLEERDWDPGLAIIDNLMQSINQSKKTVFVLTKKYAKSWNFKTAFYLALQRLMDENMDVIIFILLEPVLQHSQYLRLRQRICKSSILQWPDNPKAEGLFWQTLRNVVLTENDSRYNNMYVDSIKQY

Toll-like receptor 4 [9] = biological target: T1, Toll-like receptor 4; assay: Agonist activity at human recombinant TLR4 expressed in HEK293 cells coexpressed with human MD2 assessed as TNFalpha response by NFkappaB reporter assay; format: cell-based
[10] = biological target: Toll-like receptor 2 (Homo sapiens) (UniProt O60603); assay: Agonist activity at human recombinant TLR2 expressed in HEK293 cells by SEAP reporter assay; format: cell-based
PBMC [11] = assay: Induction of IL-12p40 production in human PBMC at 10 uM by ELISA; format: functional, cell-based

T1 sequence (O00206 whole entry): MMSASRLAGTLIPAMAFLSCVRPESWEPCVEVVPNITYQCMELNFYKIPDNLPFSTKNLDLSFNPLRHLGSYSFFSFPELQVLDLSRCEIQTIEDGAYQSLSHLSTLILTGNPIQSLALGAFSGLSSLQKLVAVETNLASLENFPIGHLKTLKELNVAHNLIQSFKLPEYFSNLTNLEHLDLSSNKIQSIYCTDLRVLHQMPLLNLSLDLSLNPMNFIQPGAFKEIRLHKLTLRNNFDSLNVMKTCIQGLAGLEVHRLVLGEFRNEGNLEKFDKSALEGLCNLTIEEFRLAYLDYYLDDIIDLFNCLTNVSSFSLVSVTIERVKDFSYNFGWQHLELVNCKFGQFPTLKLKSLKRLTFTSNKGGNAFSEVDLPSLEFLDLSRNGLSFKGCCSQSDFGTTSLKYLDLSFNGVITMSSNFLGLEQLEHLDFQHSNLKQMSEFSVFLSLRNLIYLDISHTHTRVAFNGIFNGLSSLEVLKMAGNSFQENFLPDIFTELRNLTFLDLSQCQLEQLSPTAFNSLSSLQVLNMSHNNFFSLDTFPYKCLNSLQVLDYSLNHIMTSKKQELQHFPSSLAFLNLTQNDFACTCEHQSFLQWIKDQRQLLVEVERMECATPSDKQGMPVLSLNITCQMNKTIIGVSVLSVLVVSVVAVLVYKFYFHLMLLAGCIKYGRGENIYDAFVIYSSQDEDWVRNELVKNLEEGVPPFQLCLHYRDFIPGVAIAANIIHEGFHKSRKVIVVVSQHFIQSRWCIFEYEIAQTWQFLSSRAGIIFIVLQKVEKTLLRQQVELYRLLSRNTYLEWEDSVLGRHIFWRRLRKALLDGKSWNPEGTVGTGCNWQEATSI
Toll-like receptor 3 (Homo sapiens), sequence (O15455 whole entry): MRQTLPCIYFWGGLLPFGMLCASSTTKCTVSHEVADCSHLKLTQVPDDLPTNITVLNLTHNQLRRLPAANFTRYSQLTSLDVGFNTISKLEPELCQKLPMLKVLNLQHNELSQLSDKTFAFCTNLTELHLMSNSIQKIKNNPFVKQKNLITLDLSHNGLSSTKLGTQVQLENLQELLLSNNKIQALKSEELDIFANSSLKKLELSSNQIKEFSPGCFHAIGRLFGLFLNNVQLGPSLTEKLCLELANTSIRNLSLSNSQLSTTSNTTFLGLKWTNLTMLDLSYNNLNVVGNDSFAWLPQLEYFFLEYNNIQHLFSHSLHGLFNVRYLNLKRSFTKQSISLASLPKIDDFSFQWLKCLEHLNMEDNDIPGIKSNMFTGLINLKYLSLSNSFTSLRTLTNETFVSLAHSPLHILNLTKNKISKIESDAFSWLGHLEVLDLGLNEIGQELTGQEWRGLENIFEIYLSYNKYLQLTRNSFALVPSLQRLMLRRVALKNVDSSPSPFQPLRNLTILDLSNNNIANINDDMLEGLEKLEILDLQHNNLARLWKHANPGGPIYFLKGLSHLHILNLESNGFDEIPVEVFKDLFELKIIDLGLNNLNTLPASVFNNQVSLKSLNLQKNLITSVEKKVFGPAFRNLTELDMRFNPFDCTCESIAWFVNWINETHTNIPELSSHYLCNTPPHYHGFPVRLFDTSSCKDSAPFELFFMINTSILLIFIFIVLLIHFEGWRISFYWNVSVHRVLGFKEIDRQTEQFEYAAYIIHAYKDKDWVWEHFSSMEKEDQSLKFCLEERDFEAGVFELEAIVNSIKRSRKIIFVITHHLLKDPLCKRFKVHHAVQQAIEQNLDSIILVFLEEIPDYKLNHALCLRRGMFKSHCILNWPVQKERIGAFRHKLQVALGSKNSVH
Toll-like receptor 2 (Homo sapiens), sequence (O60603 whole entry): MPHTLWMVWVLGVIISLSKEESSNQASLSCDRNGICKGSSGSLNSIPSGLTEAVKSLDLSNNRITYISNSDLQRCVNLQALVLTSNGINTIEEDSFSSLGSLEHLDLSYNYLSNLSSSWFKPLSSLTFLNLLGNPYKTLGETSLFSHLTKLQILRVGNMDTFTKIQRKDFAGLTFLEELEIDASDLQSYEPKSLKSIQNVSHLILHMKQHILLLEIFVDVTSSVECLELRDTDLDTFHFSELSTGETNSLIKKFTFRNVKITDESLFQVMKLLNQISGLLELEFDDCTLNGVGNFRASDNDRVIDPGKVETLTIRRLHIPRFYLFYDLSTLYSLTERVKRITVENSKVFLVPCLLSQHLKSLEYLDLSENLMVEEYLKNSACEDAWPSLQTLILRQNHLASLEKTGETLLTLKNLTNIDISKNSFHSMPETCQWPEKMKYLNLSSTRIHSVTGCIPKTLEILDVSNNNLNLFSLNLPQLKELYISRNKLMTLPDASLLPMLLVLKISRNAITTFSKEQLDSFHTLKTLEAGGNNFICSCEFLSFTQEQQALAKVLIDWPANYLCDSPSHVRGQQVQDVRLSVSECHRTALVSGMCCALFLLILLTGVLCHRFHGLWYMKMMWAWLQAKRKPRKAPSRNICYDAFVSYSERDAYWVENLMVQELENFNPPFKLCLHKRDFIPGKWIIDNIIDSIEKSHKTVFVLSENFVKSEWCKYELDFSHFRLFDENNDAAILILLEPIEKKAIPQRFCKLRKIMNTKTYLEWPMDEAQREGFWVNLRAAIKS

Activity [1]: inactive
Intrinsic activity (Toll-like receptor 4 [3]): 0.95
Activity [4]: inactive
pEC50 (Toll-like receptor 4 [6]): 5.41
Activity (Toll-like receptor 4 [7]): inactive
Activity [8]: inactive
Activity (Toll-like receptor 4 [9]): Active
Activity [10]: inactive
SMILES: COc1cc([C@@H]2[C@@H](C)[C@H]3[C@@H]2c2c(c4ccccc4[nH]c2=O)OC3(C)C)cc(OC)c1OC
Activity (PBMC [2]): Non-toxic
Activity (HEK293): Active
Activity (PBMC [5]): Active
Activity (PBMC [11]): Active

— ChEMBL document CHEMBL3259572, “Euodenine A: a small-molecule agonist of human TLR4” (J Med Chem, 2014)
